Test results published in patent publication US5399696A, “Isoquinolinyl compounds which are intermediates” (Eli Lilly and Company, priority 1993, dated 1995).

Legend:
[1] = target: NMDA receptor; assay: Antagonism of NMDA-induced depolarization of rat cortical wedges; type: cell-based; conditions: NMDA 40 μM, mean ± standard error (n = 3), read-out: IC50 NMDA, antagonism of cortical wedge depolarization
Procedure: (§1) The depolarization of rat cortical wedges was used to test the selectivity and potency of the formula I compounds as AMPA antagonists using a technique similar to that described by Harrison and Simmonds. Harrison and Simmonds, Bri. J. Pharmacol., 84, 381-391 (1984). Generally, 4-ml aliquots of NMDA (40 μM), AMPA (40 μM), and kainate (10 μM) were superfused (2 ml/min.) on the grey matter at intervals of 15-20 minutes until stable responses were attained. The tissue was then exposed for 15 minutes to various concentrations of the formula I compounds before retesting the agonists. The IC50 values were calculated from linear regression of log dose-response curves, each point the mean of at least three observations on separate slices from more than one animal.

[2] = target: kainic acid (KA) receptor; assay: Radioligand binding: tritiated kainate binding with washed synaptosomal membranes from the rat forebrain; conditions: tritiated kainate 5 nM, pH 7.4, mean ± standard error (n = 3), values marked ^c single experiment
Procedure: (§2) The formula I compounds were tested for their ability to inhibit NMDA, AMPA, and kainic acid receptor binding to rat membranes in a radioligand binding assay using [^3 H]CGS19755, [^3 H]AMPA, and [^3 H]KA. For all radioligand binding assays, male Sprague-Dawley rats were used. […] Non-specific binding was determined using 10 μM L-glutamate. Samples were incubated in an ice-bath for 30 minutes, and bound ligand was separated from the free ligand by rapid filtration through WHATMAN GF/B glass fiber filters. Murphy et al, British J. Pharmacol., 95, 932-938 (1988). Kainate binding was performed using washed synaptosomal membranes from the rat forebrain as described by Simon et al. Simon et al, J. Neurochem., 26, 141-147 (1976). Tritiated kainate (5 nM) was added to 50 mM Tris-HCl buffer (pH 7.4 at 4° C.) containing 200-300 μg/ml of tissue protein. Samples were incubated for 30 minutes in an ice-bath, then rapidly filtered using a Brandel cell harvester and WHATMAN GF/C filters. Filters were washed twice with 3 ml of cold buffer. Non-specific binding was determined using 100 μM non-labeled kainate. The binding of [^3 H]AMPA (5 nM) was conducted with crude membranes of rat forebrain in the presence of 100 mM KSCN as described by Nielson et al. Nielson et al, Eur. J. Med. Chem. Chim. Ther., 21, 433-437 (1986). Non-specific binding was determined with 10 μM non-labeled AMPA. The concentration of the formula I compound that inhibited 50% binding (IC50, mean ±standard error, n=3) as calculated by linear regression of displacement data transformed to the Hill equation as described by Bennett. Bennett, Neurotransmitter Receptor Binding, 57-90 (1978).

[3] = target: kainic acid (KA) receptor; assay: Antagonism of kainate-induced depolarization of rat cortical wedges; type: cell-based; conditions: kainate 10 μM, mean ± standard error (n = 3)
Procedure: as §1

[4] = target: AMPA receptor; assay: Antagonism of AMPA-induced depolarization of rat cortical wedges; type: cell-based
Procedure: as §1

[5] = target: AMPA receptor; assay: Radioligand binding: [^3 H]AMPA binding with crude membranes of rat forebrain
Procedure: as §2

[6] = target: NMDA receptor; assay: Radioligand binding: displacement of [^3 H]CGS19755 from synaptosomal membranes of rat forebrain (NMDA receptor affinity); conditions: [^3 H]CGS19755 10 nM, mean ± standard error (n = 3), values marked ^c single experiment
Procedure: as §2

[7] = Table III; racemic; AMPA 40 μM; mean ± standard error (n = 3); read-out: IC50 AMPA, antagonism of cortical wedge depolarization
[8] = Table I, racemic, [^3 H]AMPA 5 nM, 100 mM KSCN, mean ± standard error (n = 3), values marked ^c single experiment, read-out: IC50 AMPA, receptor binding
[9] = Table IV; enantiopure; AMPA 40 μM; mean ± standard error (n = 3); read-out: IC50 AMPA, antagonism of cortical wedge depolarization
[10] = Table II, enantiopure, [^3 H]AMPA 5 nM, 100 mM KSCN, mean ± standard error (n = 3), values marked ^c single experiment, read-out: IC50 AMPA, receptor binding
[11] = read-out: IC50 AMPA, antagonism of cortical wedge depolarization; Table IV; enantiopure; AMPA 40 μM; mean ± standard error (n = 3)
[12] = Table III; cortical wedge; racemic
[13] = text summary of Table I, racemic, read-out: selectively displaced ^3 H-AMPA with IC50 values

Structure (SMILES)	IC50 ([1]; Table III, racemic) [µM]	IC50 KA, receptor binding ([2]; Table I, racemic) [µM]	IC50 KA, antagonism of cortical wedge depolarization ([3]; Table III, racemic)	IC50 [4, 7] [µM]	IC50 [5, 8] [µM]	IC50 ([6]; Table I, racemic) [µM]	IC50 ([1]; Table IV, enantiopure) [µM]	IC50 KA, receptor binding ([2]; Table II, enantiopure) [µM]	IC50 KA, antagonism of cortical wedge depolarization ([3]; Table IV, enantiopure) [µM]	IC50 [4, 9] [µM]	IC50 [5, 10] [µM]	IC50 ([6]; Table II, enantiopure) [µM]	IC50 [4, 11] [µM]	selective AMPA receptor antagonism (in words) [4, 12]	IC50 [5, 13] [µM]
O=C(O)[C@@H]1C[C@H]2C[C@@H](CSc3ncn[nH]3)CC[C@H]2CN1 (racemic) [Compound 14, (3SR,4aRS,6SR,8aRS)-6-[2-(1(2-4)H-1,2,4-Triazol-5-yl)-2-thiaethyl]decahydroisoquinoline-3-carboxylic Acid]	> 100	> 10	> 100 µM	68.8 ± 12.3	> 10	> 10	–	–	–	–	–	–	–	–	–
O=C(O)[C@@H]1C[C@H]2C[C@@H](CSc3nn[nH]n3)CC[C@H]2CN1 [Compound 23]	–	–	–	–	–	–	22.9 ± 3.8	12.5	> 31.6	1.35 ± 0.35	0.58 ± 0.03	16.3	–	–	–
O=C(O)[C@H]1C[C@@H]2C[C@H](CSc3nn[nH]n3)CC[C@@H]2CN1 [Compound 24]	–	–	–	–	–	–	> 100	> 100	> 31.6	19.8 ± 2.2	21.9	> 10	–	–	–
O=C(O)[C@@H]1C[C@H]2C[C@H](CCc3nn[nH]n3)CC[C@H]2CN1 [Compound 22, (3S,4aR,6S,8a,R)-6-[2-(1(2)H-Tetrazole-5-yl)ethyl]decahydroisoquinoline-3-carboxylic Acid]	–	–	–	–	–	–	> 100	85.3	28.9 ± 9.2	–	15.3	–	21.9 ± 3.3	–	–
O=C(O)CC[C@H]1CC[C@H]2CN[C@H](C(=O)O)C[C@H]2C1 (racemic) [Compound 11, (3SR,4aRS,6RS,8aRS)-6-(2-Carboxyethyl)-decahydroisoquinoline-3-carboxylic Acid]	57 ± 4.4	> 100	> 100 µM	42 ± 6.5	27.8 ± 0.6	43.9 ± 4.1	–	–	–	–	–	–	–	–	–
O=C(O)[C@@H]1C[C@H]2C[C@H](CCSc3nnn[nH]3)CC[C@H]2CN1 (racemic) [Compound 8, (3SR,4aRS,6RS,8aRS)-6-[3-(1(2)H-Tetrazole-5-yl)-3-thiaprop-1-yl]decahydroisoquinoline-3-carboxylic Acid]	> 100	28.76 ± 2.21	18.1 ± 5.1 µM	6.8 ± 1.5	10.6 ± 2	49.2 ± 1.86	–	–	–	–	–	–	–	–	–
O=C(O)[C@@H]1C[C@H]2C[C@@H](COCc3nnn[nH]3)CC[C@H]2CN1 (racemic) [Compound 7, (3SR,4aRS,6SR,8aRS)-6-[(1(2)H-Tetrazole-5-yl)methoxymethyl]decahydroisoquinoline-3-carboxylic Acid]	> 100	> 10	> 100 µM	16 ± 1.4	> 10	> 10	–	–	–	–	–	–	–	–	–
O=C(O)[C@@H]1C[C@H]2C[C@@H](CS(=O)(=O)c3ncn[nH]3)CC[C@H]2CN1 (racemic) [Compound 15, (3SR,4aRS,6SR,8aRS)-6-[(1(2-4)H-1,2,4-Triazole-5-yl)sulfonylmethyl]decahydroisoquinoline-3-carboxylic Acid]	> 100	> 100	Ca. 10 μM	2.16 ± 0.79	1.67 ± 0.14	> 100	–	–	–	–	–	–	–	selective AMPA receptor antagonists	< 15
O=C(O)[C@@H]1C[C@H]2C[C@H](CSc3nnn[nH]3)CC[C@H]2CN1 (racemic) [Compound 5, (3SR,4aRS,6RS,8aRS)-6-[2-(1(2)H-Tetrazole-5-yl)-2-thiaethyl]decahydroisoquinoline-3-carboxylic Acid]	> 100	37.3 ± 2.3	> 100 µM	6.1 ± 1.5	4.9 ± 0.4	47.9 ± 3.9	–	–	–	–	–	–	–	selective AMPA receptor antagonists	< 15
O=C(O)[C@@H]1C[C@H]2C[C@@H](CCc3cc(O)no3)CC[C@H]2CN1 (racemic) [Compound 13, (3SR,4aRS,6RS,8aRS)-6-[2-(3-Hydroxyisoxazole-5-yl)ethyl]decahydroisoquinoline-3-carboxylic Acid]	> 100	> 100	> 100 µM	16.5 ± 2.7	13.8 ± 1.24	> 100	–	–	–	–	–	–	–	selective AMPA receptor antagonists	< 15
O=C(O)[C@@H]1C[C@H]2C[C@@H](C=Cc3nsnc3O)CC[C@H]2CN1 (racemic) [Compound 20, (3SR,4aRS,6SR,8aRS)-6-[2-(3-Hydroxy-1,2,5-thiadiazole-4-yl)ethenyl]decahydroisoquinoline-3-carboxylic Acid]	> 100	> 100	> 100 µM	100	83.4	> 100	–	–	–	–	–	–	–	–	–
O=C(O)[C@@H]1C[C@H]2C[C@@H](CCc3nn[nH]n3)CC[C@H]2CN1 [Compound 21, (3S,4aR,6R,8aR)-(-)-6-[2-(1(2)H-Tetrazole-5-yl)ethyl]decahydroisoquinoline-3-carboxylic Acid]	–	–	–	–	–	–	< 100	28.1 ± 1.7	< 100	–	1.35 ± 0.13	12.1 ± 2	1.78 ± 0.23	–	–
O=C(O)[C@@H]1C[C@H]2C[C@@H](CCc3nn[nH]n3)CC[C@H]2CN1 (relative stereo) [Compound 1, (3 SR,4aRS,6RS,8aRS)-6-[2-(1(2)H-Tetrazole-5-yl)ethyl]decahydroisoquinoline-3-carboxylic Acid]	61.3 ± 3	246.98 ± 7.5	31.7 ± 4.4 µM	6 ± 1	–	26.4 ± 1.95	–	–	–	–	–	–	–	–	–
